Reference: publication PMC3793977, “High-Throughput Screening (HTS) and Hit Validation to Identify Small Molecule Inhibitors with Activity against NS3/4A proteases from Multiple Hepatitis C Virus Genotypes” (PLoS ONE, 2013)
Several values for one entry are separate records, joined by “and”; a condition that tells them apart may be missing. Equal values may be shown once.

Assays:
[1] = biological target: T1, NS3/4A protease genotype 2a (Hepatitis C virus genotype 2a, UniProt Q99IB8); assay: Inhibition assay with NS3/4A from genotype 2a; format: biochemical
T1 construct: against the NS3/4A protease domains from three additional HCV genotypes (1a, 2a, and 4d); purchased Anaspec
Procedure: (§1) The inhibitory activity of the final hit compounds from HTS were tested against three other HCV genotypes (1a, 2a, and 4d), along with a control (genotype 1b) and five NS3 drug-resistant mutants. Eight full-length NS3 mutants (V36M, R155K, A156T, A156S, 156V, V36A, T54A, and R155T) were generated by mutagenesis and purified, and the three HCV NS3/4A protease genotypes were purchased from Anaspec. Unfortunately the enzyme activities of the three mutants V36A, T54A, and R155T were much less than that of the rest of the mutants and were insufficient for testing, therefore mutant studies were done with the five active mutants. Continuous kinetic assays were performed against all hit compounds in the same way as the wild-type NS3/4A. As a control, full-length NS3/4A (genotype 1b) was tested under the same conditions for direct comparison for each plate.

[2] = biological target: T2, HCV replicon cell lysate sg 1b (NS3) (Hepatitis C virus genotype 1b, UniProt Q9WMX2); assay: Whole cell lysate inhibition assay, HCV subgenomic replicon 1b; format: biochemical
T2 construct: host or cells: Huh7 Clone B cells stably replicating an HCV 1b subgenomic replicon; whole cell lysate
Procedure: (§2) Huh7-1 cells (also known as Huh7/scr cells) were obtained from F.V. Chisari (The Scripps Research Institute, La Jolla, CA). Clone B HCV sub-genotype 1b Huh7 cells were obtained from the NIH AIDS Research and Reference Reagent Program and have been previously described. Huh7 cells stably replicating the sub-genotype 2a HCV JFH-1 replicon were generated as previously described. All cells were cultured in complete Dulbecco’s modified Eagle’s medium (DMEM) supplemented with 10% fetal bovine serum, 100 units/mL penicillin, […] streptomycin, and 2 mM L-glutamine. HCV replicon cells were maintained in 500 µg/mL Geneticin (Invitrogen). For NS3 inhibition analysis, lysates from parental Huh7 cells and HCV replicon cells were harvested on ice in pre-chilled FRET cell lysis buffer (50 mM Tris-HCl, pH 7.5; 150 mM NaCl, 2 mM EDTA, 1.25% Triton X-100). Lysates were brought to room temperature and mixed 1∶1 with 2× FRET assay buffer (100 mM Tris-HCl, pH 7.5, 300 mM NaCl, 4 mM EDTA, 2.5% Triton X-100, 10 mM GSH, and 4 µM substrate). Fluorescence intensity was continuously monitored for 1 hour, and IC50 values were determined in the same way as biochemical assays.

[3] = biological target: T3, full-length NS3/4A genotype 1b mutant A156S (Hepatitis C virus genotype 1b, UniProt Q9WMX2, A1182S); assay: Inhibition assay with drug-resistant mutant A156S; format: biochemical
T3 construct: wild-type HCV NS3 (HCV polyprotein residues 1027–1657); His-tag (N); made in house
Procedure: (§3) The full-length genes of wild-type HCV NS3 (HCV polyprotein residues 1027–1657) with a his-tag at the N-terminus and NS4A (residues 1658–1711) with no tag were cloned, co-expressed, and purified as described. Eight NS3 drug resistant mutants (V36M, V36A, T54A, R155K, R155T, A156T, A156S, and 156V) were generated by mutagenesis using full-length, wild-type NS3-containing recombinant plasmid (pETDuet-1/FL NS3/4A) as a template. The over-expression and purification of all mutants were performed by the same method as the wild-type with minor modifications.
as §1, with “As a control, full-length NS3/4A (genotype 1b) was tested under the same conditions for direct comparison for each plate.” left out

[4] = biological target: T4, full-length NS3/4A protease (genotype 1b) (Hepatitis C virus genotype 1b, UniProt Q9WMX2); assay: biochemical
T4 construct: wild-type HCV NS3 (HCV polyprotein residues 1027–1657); His-tag (N); made in house

[5] = biological target: T5, HCV replicon cell lysate sg 2a (NS3) (Hepatitis C virus genotype 2a, UniProt Q99IB8); assay: Whole cell lysate inhibition assay, HCV subgenomic replicon 2a; format: biochemical
T5 construct: expressed in transfected cells; host or cells: Huh7 cells stably replicating the JFH-1 subgenomic replicon; whole cell lysate
Procedure: as §2

full-length NS3/4A = biological target: T6, full-length NS3/4A (Hepatitis C virus genotype 1b, UniProt Q9WMX2); assay: Type (mechanism) of enzyme inhibition, kinetic analysis; format: biochemical
T6 construct: wild-type HCV NS3 (HCV polyprotein residues 1027–1657); His-tag (N); made in house
Procedure: Full-length NS3/4A activity was monitored in the same way as the primary screening with varying concentration of both inhibitor compounds and substrate (0–8 µM). The concentration of compounds varied from 0 to 20 µM at 1.5-fold dilution factor.

[6] = biological target: T7, NS3/4A protease genotype 1a (Hepatitis C virus genotype 1a, UniProt P27958); assay: Inhibition assay with NS3/4A from genotype 1a; format: biochemical; conditions: IC50 NS3/4A genotype 1a
T7 construct: against the NS3/4A protease domains from three additional HCV genotypes (1a, 2a, and 4d); purchased Anaspec
Procedure: as §1

[7] = biological target: T8, full-length NS3/4A genotype 1b mutant A156T (Hepatitis C virus genotype 1b, UniProt Q9WMX2, A1182T); assay: Inhibition assay with drug-resistant mutant A156T; format: biochemical
T8 construct: wild-type HCV NS3 (HCV polyprotein residues 1027–1657); His-tag (N); made in house
Procedure: as §3
as §1, with “As a control, full-length NS3/4A (genotype 1b) was tested under the same conditions for direct comparison for each plate.” left out

## Cc1cc(NC(=O)Cc2csc(NS(=O)(=O)c3ccccc3)n2)ccc1Br [Compound 12]
[1]; IC50 Purified NS3/4A Sub-genotype 2a, genotype 2a
  IC50: 12.7 ± 1.2 µM
[1]; purified enzymes
  fold less effective against genotype 2a than 1b in the biochemical assay: ~6 fold
[2]; sg1b lysate compared to purified enzyme
  fold increase of IC50, whole cell lysate 1b vs biochemical assay: 10–20 fold
[2]; whole cell lysate, subgenomic replicon 1b
  IC50: < 120 µM and 29.3 µM
[3]
  IC50: ≤ 20 µM
[4]; calculated with IC50 values from the full-length NS3/4A
  LE: 0.29 kcal/mol/heavy atom
[4]; purified full-length NS3/4A, genotype 1b wild-type, read-out: IC50 Full-length NS3/4A
  IC50: 2.2 ± 0.4 µM
[5]; sg2a lysate compared to purified enzyme
  fold increase of IC50, whole cell lysate 2a vs biochemical assay: 10–20 fold
[5]; whole cell lysate, subgenomic replicon 2a
  IC50: < 120 µM and 115 µM
full-length NS3/4A; competitive model, with respect to substrate
  Ki: 3.5 µM
full-length NS3/4A; with respect to the substrate, best fit model
  mechanism of inhibition: competitive inhibitors
[6]
  IC50: < 20 µM
[7]
  IC50: ≤ 20 µM
